Laboratory results from article PMC5218480 (PLoS ONE, 2017).

System: MV-4-11 cells
Assay: Gene expression microarray analysis (Affymetrix PrimeView) and GSEA
Assay type: cell-based, human
Set-up: RFU PODN (11730768_x_at) / Fold change /veh PODN (11730768_x_at) / RFU LINC00158 (11744669_a_at) / Fold change /veh LINC00158 (11744669_a_at) / RFU DUSP10 (11751237_a_at) / Fold change /veh DUSP10 (11751237_a_at) / RFU ID3 (11757404_x_at) / Fold change /veh ID3 (11757404_x_at) / RFU PLEKHG5 (11737974_s_at) / Fold change /veh PLEKHG5 (11737974_s_at) / RFU LRRC4B (11730491_at) / Fold change /veh LRRC4B (11730491_at) / RFU GIMAP4 (11747438_a_at) / Fold change /veh GIMAP4 (11747438_a_at) / RFU KRT8 (11758183_x_at) / Fold change /veh KRT8 (11758183_x_at) / RFU CNN1 (11734310_a_at) / Fold change /veh CNN1 (11734310_a_at) / RFU VPS37D (11726825_at) / Fold change /veh VPS37D (11726825_at) / RFU C10orf10 (11716522_x_at) / Fold change /veh C10orf10 (11716522_x_at) / RFU KIR2DL2 /// KIR2DL4 /// KIR2DL5A /// KIR2DL5B /// KIR2DS1 /// KIR2DS2 /// KIR2DS3 /// KIR2DS4 /// KIR3DL3 /// KIR3DL3 /// KIR3DS1 (11738374_at) / Fold change /veh KIR2DL2 /// KIR2DL4 /// KIR2DL5A /// KIR2DL5B /// KIR2DS1 /// KIR2DS2 /// KIR2DS3 /// KIR2DS4 /// KIR3DL3 /// KIR3DL3 /// KIR3DS1 (11738374_at) / RFU C1QL1 (11718748_at) / Fold change /veh C1QL1 (11718748_at) / RFU TMPRSS4 (11747572_a_at) / Fold change /veh TMPRSS4 (11747572_a_at) / RFU HAMP (11756126_x_at) / Fold change /veh HAMP (11756126_x_at) / RFU RNFT2 (11725882_a_at) / Fold change /veh RNFT2 (11725882_a_at) / RFU NR4A2 (11747474_a_at) / Fold change /veh NR4A2 (11747474_a_at) / RFU ABCC12 (11746883_a_at) / Fold change /veh ABCC12 (11746883_a_at) / RFU TMEM136 (11760407_x_at) / Fold change /veh TMEM136 (11760407_x_at) / RFU CLDN22 /// WWC2 (11732394_at) / Fold change /veh CLDN22 /// WWC2 (11732394_at) / RFU HLA-DPB1 (11760878_x_at) / Fold change /veh HLA-DPB1 (11760878_x_at) / RFU SPINT1 (11716480_a_at) / Fold change /veh SPINT1 (11716480_a_at) / RFU GAP43 (11754022_s_at) / Fold change /veh GAP43 (11754022_s_at) / RFU A4GNT (11735810_at) / Fold change /veh A4GNT (11735810_at) / RFU PRB3 (11715151_x_at) / Fold change /veh PRB3 (11715151_x_at) / RFU TUBB4B (11761932_at) / Fold change /veh TUBB4B (11761932_at) / RFU CAPN14 (11732068_a_at) / Fold change /veh CAPN14 (11732068_a_at) / RFU TMCC2 (11721928_a_at) / Fold change /veh TMCC2 (11721928_a_at) / RFU IRGQ (11745062_a_at) / Fold change /veh IRGQ (11745062_a_at) / RFU FAM174B (11720279_a_at) / Fold change /veh FAM174B (11720279_a_at) / RFU TMPRSS4 (11748680_a_at) / Fold change /veh TMPRSS4 (11748680_a_at) / RFU FAM212B (11763350_a_at) / Fold change /veh FAM212B (11763350_a_at) / RFU PLEKHG5 (11743358_a_at) / Fold change /veh PLEKHG5 (11743358_a_at) / RFU ZSCAN30 (11745921_a_at) / Fold change /veh ZSCAN30 (11745921_a_at) / RFU CMKLR1 (11741424_a_at) / Fold change /veh CMKLR1 (11741424_a_at) / RFU LOC101060620 /// MAPK8IP1 (11723275_at) / Fold change /veh LOC101060620 /// MAPK8IP1 (11723275_at) / RFU SPTSSB (11747773_x_at) / Fold change /veh SPTSSB (11747773_x_at) / RFU PRSS12 (11739890_at) / Fold change /veh PRSS12 (11739890_at) / RFU BIN1 (11741810_x_at) / Fold change /veh BIN1 (11741810_x_at) / RFU WNT11 (11732464_a_at) / Fold change /veh WNT11 (11732464_a_at) / RFU C10orf10 (11716521_a_at) / Fold change /veh C10orf10 (11716521_a_at) / RFU C5orf56 (11738089_at) / Fold change /veh C5orf56 (11738089_at) / RFU CYB561 (11721691_x_at) / Fold change /veh CYB561 (11721691_x_at) / RFU ANKRD19P (11752326_a_at) / Fold change /veh ANKRD19P (11752326_a_at) / RFU OR2T12 /// OR2T33 /// OR2T8 (11738714_s_at) / Fold change /veh OR2T12 /// OR2T33 /// OR2T8 (11738714_s_at) / RFU VCAN (11748164_a_at) / Fold change /veh VCAN (11748164_a_at) / RFU JSRP1 (11732532_at) / Fold change /veh JSRP1 (11732532_at) / RFU KRTAP10-11 (11738290_x_at) / Fold change /veh KRTAP10-11 (11738290_x_at) / RFU MYO3A (11730013_a_at) / Fold change /veh MYO3A (11730013_a_at) / RFU EBF3 (11725865_a_at) / Fold change /veh EBF3 (11725865_a_at) / RFU CAMK2N1 (11719241_x_at) / Fold change /veh CAMK2N1 (11719241_x_at) / RFU C5orf56 (11738088_a_at) / Fold change /veh C5orf56 (11738088_a_at) / RFU OLFML3 (11715873_a_at) / Fold change /veh OLFML3 (11715873_a_at) / RFU LOC100653217 /// NTM (11731650_a_at) / Fold change /veh LOC100653217 /// NTM (11731650_a_at) / RFU MAPK11 (11762145_a_at) / Fold change /veh MAPK11 (11762145_a_at) / RFU FIZ1 (11724087_x_at) / Fold change /veh FIZ1 (11724087_x_at) / RFU OASL (11726364_x_at) / Fold change /veh OASL (11726364_x_at) / RFU SOX15 (11748057_x_at) / Fold change /veh SOX15 (11748057_x_at) / RFU CD79A (11719716_a_at) / Fold change /veh CD79A (11719716_a_at) / RFU HIST1H1D (11736915_at) / Fold change /veh HIST1H1D (11736915_at) / RFU CASKIN2 (11723855_a_at) / Fold change /veh CASKIN2 (11723855_a_at) / RFU LOC730098 (11760151_x_at) / Fold change /veh LOC730098 (11760151_x_at) / RFU OR4N2 (11742367_at) / Fold change /veh OR4N2 (11742367_at) / RFU PRRT2 (11749266_a_at) / Fold change /veh PRRT2 (11749266_a_at) / RFU SNX32 (11753110_a_at) / Fold change /veh SNX32 (11753110_a_at) / RFU CDHR5 (11726645_a_at) / Fold change /veh CDHR5 (11726645_a_at) / RFU RCAN1 (11760418_a_at) / Fold change /veh RCAN1 (11760418_a_at) / RFU FAM167A (11723789_a_at) / Fold change /veh FAM167A (11723789_a_at) / RFU FAM26E (11764081_at) / Fold change /veh FAM26E (11764081_at) / RFU ISYNA1 (11749810_s_at) / Fold change /veh ISYNA1 (11749810_s_at) / RFU ACY1 (11761880_at) / Fold change /veh ACY1 (11761880_at) / RFU 11764098_at / Fold change /veh 11764098_at / RFU SAMD14 (11745864_x_at) / Fold change /veh SAMD14 (11745864_x_at) / RFU NPB (11741838_a_at) / Fold change /veh NPB (11741838_a_at) / RFU TMPRSS6 (11731388_a_at) / Fold change /veh TMPRSS6 (11731388_a_at) / RFU KRTAP10-2 (11738614_at) / Fold change /veh KRTAP10-2 (11738614_at) / RFU ARHGAP8 /// PRR5-ARHGAP8 (11727945_x_at) / Fold change /veh ARHGAP8 /// PRR5-ARHGAP8 (11727945_x_at) / RFU KRTAP5-7 /// NADSYN1 (11734609_at) / Fold change /veh KRTAP5-7 /// NADSYN1 (11734609_at) / RFU RASL12 (11751679_a_at) / Fold change /veh RASL12 (11751679_a_at) / RFU CDKN2B (11736163_a_at) / Fold change /veh CDKN2B (11736163_a_at) / RFU PRF1 (11729649_at) / Fold change /veh PRF1 (11729649_at) / RFU, ZNF638 /// ZNF638-IT1 / Fold change vs veh, ZNF638 /// ZNF638-IT1 / RFU, PANK3 / Fold change vs veh, PANK3 / RFU, SH3YL1 / Fold change vs veh, SH3YL1 / RFU, ZEB2 / Fold change vs veh, ZEB2 / RFU, NRIP1 / Fold change vs veh, NRIP1 / RFU, PTTG1IP / Fold change vs veh, PTTG1IP / RFU, CAPN2 / Fold change vs veh, CAPN2 / RFU, MED14 / Fold change vs veh, MED14 / RFU, SNORA58 / Fold change vs veh, SNORA58 / RFU, C1orf63 / Fold change vs veh, C1orf63 / RFU, LRRFIP1 / Fold change vs veh, LRRFIP1 / RFU, NDUFAF7 / Fold change vs veh, NDUFAF7 / RFU, SLC12A2 / Fold change vs veh, SLC12A2 / RFU, IBTK / Fold change vs veh, IBTK / RFU, ESF1 / Fold change vs veh, ESF1 / Fold change vs veh, TMEM50B / RFU, TAOK1 / Fold change vs veh, TAOK1 / RFU, ACBD3 / Fold change vs veh, ACBD3 / RFU, TMA16 / Fold change vs veh, TMA16 / RFU, RWDD3 / Fold change vs veh, RWDD3 / RFU, BCAT1 / Fold change vs veh, BCAT1 / RFU, EDEM3 / Fold change vs veh, EDEM3 / RFU, TMEM33 / Fold change vs veh, TMEM33 / RFU, WDR75 / Fold change vs veh, WDR75 / RFU, AHCTF1 / Fold change vs veh, AHCTF1 / RFU, TFRC / Fold change vs veh, TFRC / RFU, ZDHHC17 / Fold change vs veh, ZDHHC17 / RFU, NOM1 / Fold change vs veh, NOM1 / RFU, ARL8B / Fold change vs veh, ARL8B / RFU, ZBTB11 / Fold change vs veh, ZBTB11 / RFU, TAMM41 / Fold change vs veh, TAMM41 / RFU, KIAA1704 /// LOC100996395 / Fold change vs veh, KIAA1704 /// LOC100996395 / RFU, ING1 / Fold change vs veh, ING1 / RFU, TRMT61B / Fold change vs veh, TRMT61B / RFU, FUBP3 / Fold change vs veh, FUBP3 / RFU, TP53 / Fold change vs veh, TP53 / RFU, TNKS2 / Fold change vs veh, TNKS2 / RFU, ZFP14 / Fold change vs veh, ZFP14 / RFU, ACTR2 / Fold change vs veh, ACTR2 / RFU, PPP3R1 / Fold change vs veh, PPP3R1 / RFU, PIK3R1 / Fold change vs veh, PIK3R1 / RFU, HNRNPA1 / Fold change vs veh, HNRNPA1 / RFU, RNF170 / Fold change vs veh, RNF170 / RFU, ZNF28 / Fold change vs veh, ZNF28 / RFU, RNGTT / Fold change vs veh, RNGTT / RFU, OGT / Fold change vs veh, OGT / RFU, BRD1 / Fold change vs veh, BRD1 / RFU, MARS / Fold change vs veh, MARS / RFU, ZNF655 / Fold change vs veh, ZNF655 / RFU, FAHD1 / Fold change vs veh, FAHD1 / RFU, BDP1 / Fold change vs veh, BDP1 / RFU, LRRCC1 / Fold change vs veh, LRRCC1 / RFU, ARID1A / Fold change vs veh, ARID1A / RFU, ZNF146 / Fold change vs veh, ZNF146 / RFU, ZNF330 / Fold change vs veh, ZNF330 / RFU, GPN3 / Fold change vs veh, GPN3 / RFU, C9orf123 / Fold change vs veh, C9orf123 / RFU, N4BP2L2 / Fold change vs veh, N4BP2L2 / RFU, ARFIP1 / Fold change vs veh, ARFIP1 / RFU, FAM179B / Fold change vs veh, FAM179B / RFU, BCL10 / Fold change vs veh, BCL10 / RFU, UHRF1BP1L / Fold change vs veh, UHRF1BP1L / RFU, BET1 / Fold change vs veh, BET1 / RFU, CNOT2 / Fold change vs veh, CNOT2 / RFU, ZNF268 / Fold change vs veh, ZNF268 / Fold change vs veh, ZNF507 / RFU, DGCR2 / Fold change vs veh, DGCR2 / RFU, WDSUB1 / Fold change vs veh, WDSUB1 / Fold change vs veh, HSP90B1 /// MIR3652 / RFU, ADSS / Fold change vs veh, ADSS / RFU, GK / Fold change vs veh, GK / RFU, ZNF148 / Fold change vs veh, ZNF148 / RFU, TAF9 / Fold change vs veh, TAF9 / RFU, SLC1A5 / Fold change vs veh, SLC1A5 / RFU, SLMO2 / Fold change vs veh, SLMO2 / RFU, ABCC4 / Fold change vs veh, ABCC4 / RFU, LOC101060439 /// RAP1B / Fold change vs veh, LOC101060439 /// RAP1B / RFU, RFX7 / Fold change vs veh, RFX7 / RFU, GTPBP10 / Fold change vs veh, GTPBP10 / RFU, CNEP1R1 / Fold change vs veh, CNEP1R1 / RFU, BIVM-ERCC5 /// ERCC5 / Fold change vs veh, BIVM-ERCC5 /// ERCC5 / RFU, ILF3 / Fold change vs veh, ILF3 / RFU 11762660_at / Fold change /veh 11762660_at / RFU VCAN (11757783_s_at) / Fold change /veh VCAN (11757783_s_at) / RFU DDX43 (11728927_at) / Fold change /veh DDX43 (11728927_at) / RFU KRT8 (11758188_x_at) / Fold change /veh KRT8 (11758188_x_at) / RFU NKD1 (11759106_at) / Fold change /veh NKD1 (11759106_at) / RFU SRD5A1 (11742802_a_at) / Fold change /veh SRD5A1 (11742802_a_at) / RFU TPSAB1 /// TPSB2 (11721975_s_at) / Fold change /veh TPSAB1 /// TPSB2 (11721975_s_at) / RFU GSTM3 (11746129_a_at) / Fold change /veh GSTM3 (11746129_a_at) / RFU IL23R (11737362_x_at) / Fold change /veh IL23R (11737362_x_at) / RFU TMEM51 (11727254_a_at) / Fold change /veh TMEM51 (11727254_a_at) / RFU PIWIL2 (11732686_x_at) / Fold change /veh PIWIL2 (11732686_x_at) / RFU ORM1 (11744905_x_at) / Fold change /veh ORM1 (11744905_x_at) / RFU CCDC152 (11743942_at) / Fold change /veh CCDC152 (11743942_at) / RFU ECM1 (11717891_a_at) / Fold change /veh ECM1 (11717891_a_at) / RFU IL23R (11748794_a_at) / Fold change /veh IL23R (11748794_a_at) / RFU TNFAIP8L3 (11732012_x_at) / Fold change /veh TNFAIP8L3 (11732012_x_at) / RFU MBOAT4 (11741988_at) / Fold change /veh MBOAT4 (11741988_at) / RFU 11764193_at / Fold change /veh 11764193_at / RFU TMEM53 (11763286_at) / Fold change /veh TMEM53 (11763286_at) / RFU MAGEB2 (11727129_at) / Fold change /veh MAGEB2 (11727129_at) / RFU TMEM200A (11744735_a_at) / Fold change /veh TMEM200A (11744735_a_at) / RFU CCDC152 (11751479_a_at) / Fold change /veh CCDC152 (11751479_a_at) / RFU FAM211A (11726209_a_at) / Fold change /veh FAM211A (11726209_a_at) / RFU RGS16 (11746705_a_at) / Fold change /veh RGS16 (11746705_a_at) / RFU VCAN (11755009_s_at) / Fold change /veh VCAN (11755009_s_at) / RFU RHOB (11743442_s_at) / Fold change /veh RHOB (11743442_s_at) / RFU RGS16 (11720943_a_at) / Fold change /veh RGS16 (11720943_a_at) / RFU RGS16 (11720944_at) / Fold change /veh RGS16 (11720944_at) / RFU, VPS4B / Fold change vs veh, VPS4B / RFU, CREB1 / Fold change vs veh, CREB1 / RFU, DNAJC13 / Fold change vs veh, DNAJC13 / RFU, GNAQ / Fold change vs veh, GNAQ / RFU, CDK5R1 / Fold change vs veh, CDK5R1 / RFU, ZRANB3 / Fold change vs veh, ZRANB3 / RFU, CUL4A / Fold change vs veh, CUL4A / RFU, CCNY / Fold change vs veh, CCNY / RFU, UFL1 / Fold change vs veh, UFL1 / RFU, COG3 / Fold change vs veh, COG3 / RFU, DIAPH2 / Fold change vs veh, DIAPH2 / RFU, SKA2 / Fold change vs veh, SKA2 / RFU, AFF3 / Fold change vs veh, AFF3 / RFU, LMF1 / Fold change vs veh, LMF1 / RFU, IPO11 / Fold change vs veh, IPO11 / RFU, DFFB / Fold change vs veh, DFFB / RFU, FOXP1 / Fold change vs veh, FOXP1 / RFU, CARD8 / Fold change vs veh, CARD8 / RFU, STRN3 / Fold change vs veh, STRN3 / RFU, ADK / Fold change vs veh, ADK / RFU, RASSF2 / Fold change vs veh, RASSF2 / RFU, WIPF1 / Fold change vs veh, WIPF1 / RFU, LARP1B / Fold change vs veh, LARP1B / RFU, RASA1 / Fold change vs veh, RASA1 / RFU, RB1 / Fold change vs veh, RB1 / RFU, PPFIA1 / Fold change vs veh, PPFIA1 / RFU, MAT2A / Fold change vs veh, MAT2A / RFU, CCT5 / Fold change vs veh, CCT5 / RFU, WDR92 / Fold change vs veh, WDR92 / RFU, CUX1 / Fold change vs veh, CUX1 / RFU, TTC7A / Fold change vs veh, TTC7A / RFU, TMEM135 / Fold change vs veh, TMEM135 / RFU, DEPTOR / Fold change vs veh, DEPTOR / RFU, CPM / Fold change vs veh, CPM / RFU, DNAJB6 / Fold change vs veh, DNAJB6 / RFU, CACNA2D3 / Fold change vs veh, CACNA2D3 / RFU, DTX4 / Fold change vs veh, DTX4 / RFU, TFCP2 / Fold change vs veh, TFCP2 / RFU, GMCL1 /// GMCL1P1 / Fold change vs veh, GMCL1 /// GMCL1P1 / RFU, AEBP2 / Fold change vs veh, AEBP2 / RFU, SNHG1 /// SNORD22 /// SNORD25 /// SNORD26 /// SNORD27 /// SNORD28 /// SNORD29 /// SNORD31 / Fold change vs veh, SNHG1 /// SNORD22 /// SNORD25 /// SNORD26 /// SNORD27 /// SNORD28 /// SNORD29 /// SNORD31 / Fold change (Aza/veh), C12orf56 (ProbeSet 11735607_a_at) / Fold change (ACY-1035/veh), C12orf56 (ProbeSet 11735607_a_at) / Fold change (Aza/veh), FGFR1OP (ProbeSet 11751329_s_at) / Fold change (ACY-1035/veh), FGFR1OP (ProbeSet 11751329_s_at) / Fold change (Aza/veh), VPS36 (ProbeSet 11739960_a_at) / Fold change (ACY-1035/veh), VPS36 (ProbeSet 11739960_a_at) / RFU SYPL1 (11715823_x_at) / Fold change /veh SYPL1 (11715823_x_at) / RFU IGFBP7 (11715501_s_at) / Fold change /veh IGFBP7 (11715501_s_at) / RFU REEP3 (11722064_at) / Fold change /veh REEP3 (11722064_at) / RFU IGLL1 (11728026_x_at) / Fold change /veh IGLL1 (11728026_x_at): dose or concentration left out as unconfirmed
Details: MV-4-11 cells, 48 hours

Nc1ccc(-c2cccs2)cc1NC(=O)c1ccc2c(c1)cc(C1CC1)n2CCN1CCOCC1 [ACY-1035]
RFU KRT8 (11758188_x_at): 20.03 RFU
